Data from patent US12358885B2, “Substituted n-propylamine fused heterocyclic mescaline derivatives” (Enveric Biosciences Canada Inc., priority 2022, dated 2025).
Where two headings read alike, the source gives them in different places.

Tests used:
alpha2A receptor = target: T1, alpha2A receptor (Homo sapiens, UniProt P08913); assay: Eurofins Cerep competition binding assay at alpha2A receptor; details: 10 μM test ligand; [3H]RX 821002; recombinant receptor in CHO cells
T1 construct: host or cells: CHO cells (membrane preparation)
T1 sequence (P08913 1-465): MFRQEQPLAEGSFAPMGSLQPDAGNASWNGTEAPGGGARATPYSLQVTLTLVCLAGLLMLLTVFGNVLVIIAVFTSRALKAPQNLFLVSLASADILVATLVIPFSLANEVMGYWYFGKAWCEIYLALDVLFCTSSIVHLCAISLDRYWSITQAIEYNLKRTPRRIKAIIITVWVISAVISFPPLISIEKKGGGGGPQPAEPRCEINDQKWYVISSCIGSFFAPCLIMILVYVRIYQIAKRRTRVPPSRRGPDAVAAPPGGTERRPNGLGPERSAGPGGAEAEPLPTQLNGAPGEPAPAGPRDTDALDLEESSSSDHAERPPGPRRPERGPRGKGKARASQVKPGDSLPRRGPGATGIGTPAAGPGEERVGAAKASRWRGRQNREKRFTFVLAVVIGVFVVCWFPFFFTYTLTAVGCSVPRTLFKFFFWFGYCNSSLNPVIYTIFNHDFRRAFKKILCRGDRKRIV

D3 receptor = target: T2, D3 receptor (Homo sapiens, UniProt P35462); assay: Eurofins Cerep competition binding assay at D3 receptor; details: 10 μM test ligand, [3H]methylspiperone, recombinant receptor in CHO cells; for inhibition at 10 µM: read-out: D3, percent of control-specific binding
T2 construct: host or cells: CHO cells (membrane preparation)

5-HT1A receptor [1] = target: T3, 5-HT1A receptor (Homo sapiens, UniProt P08908); assay: Functional 5-HT1A receptor cAMP assay in CHO-K1/5-HT1A/Gα15 cells; type: cell-based
T3 construct: purchased Perkin Elmer 6110501400UA
T3 sequence (P08908 1-422): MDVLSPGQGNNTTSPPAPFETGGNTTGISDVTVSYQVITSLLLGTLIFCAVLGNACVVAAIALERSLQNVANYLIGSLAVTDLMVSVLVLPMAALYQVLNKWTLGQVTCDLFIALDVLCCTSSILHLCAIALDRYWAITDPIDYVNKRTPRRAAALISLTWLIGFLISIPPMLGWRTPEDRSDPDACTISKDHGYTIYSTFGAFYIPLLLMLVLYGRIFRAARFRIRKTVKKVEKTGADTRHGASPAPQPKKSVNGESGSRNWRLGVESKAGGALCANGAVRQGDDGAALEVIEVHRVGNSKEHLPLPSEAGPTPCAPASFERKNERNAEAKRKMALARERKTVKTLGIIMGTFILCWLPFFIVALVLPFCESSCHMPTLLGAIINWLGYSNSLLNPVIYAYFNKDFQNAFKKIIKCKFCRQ

5-HT1A receptor [2] = target: T3, 5-HT1A receptor; assay: 5-HT1A receptor radioligand competition assay (SPA, 8-hydroxy-DPAT [3H]); type: binding; details: 0.5 nM hot 8-hydroxy-DPAT, membranes containing 5-HT1A
5-HT1A receptor [3] = target: T3, 5-HT1A receptor; assay: Eurofins Cerep competition binding assay at 5-HT1A receptor; details: 10 μM test ligand, [3H]8-OH-DPAT, recombinant receptor in HEK-293 cells; for inhibition at 10 µM: read-out: HT1A, percent of control-specific binding
5-HT2A receptor [4] = target: T4, 5-HT2A receptor (Homo sapiens, UniProt P28223); assay: biochemical; type: binding; details: 10 μM test molecule, [125I](±)DOI, recombinant receptor in HEK-293 cells; for inhibition at 10 µM: read-out: HT2A, percent of control-specific binding
T4 construct: host or cells: HEK-293 cells (membrane preparation)

5-HT2B receptor = target: T5, 5-HT2B receptor (Homo sapiens, UniProt P41595); assay: Eurofins Cerep competition binding assay at 5-HT2B receptor; details: 10 μM test ligand, [3H]mesulergine, recombinant receptor in CHO cells; for inhibition at 10 µM: read-out: HT2B, percent of control-specific binding
T5 construct: host or cells: CHO cells (membrane preparation)

5-HT2C receptor = target: T6, 5-HT2C receptor (Homo sapiens, UniProt P28335); assay: Eurofins Cerep competition binding assay at 5-HT2C receptor; details: 10 μM test ligand; [125I](±)DOI; recombinant receptor in HEK-293 cells; read-out: HT2C, percent of control-specific binding
T6 construct: host or cells: HEK-293 cells (membrane preparation)
T6 sequence (P28335 33-458): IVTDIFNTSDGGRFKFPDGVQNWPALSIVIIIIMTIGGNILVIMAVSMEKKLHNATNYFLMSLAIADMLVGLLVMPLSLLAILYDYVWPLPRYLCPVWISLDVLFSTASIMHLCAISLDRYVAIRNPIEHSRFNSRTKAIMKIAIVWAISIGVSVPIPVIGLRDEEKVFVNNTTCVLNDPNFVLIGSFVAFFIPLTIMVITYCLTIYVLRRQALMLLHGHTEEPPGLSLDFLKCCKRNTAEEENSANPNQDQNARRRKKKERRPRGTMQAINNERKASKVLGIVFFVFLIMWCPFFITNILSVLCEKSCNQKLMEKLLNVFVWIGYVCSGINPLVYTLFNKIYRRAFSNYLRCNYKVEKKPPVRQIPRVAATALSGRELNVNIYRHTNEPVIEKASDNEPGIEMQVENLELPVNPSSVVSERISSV

5-HT7 receptor = target: T7, 5-HT7 receptor (Homo sapiens, UniProt P34969); assay: Eurofins Cerep competition binding assay at 5-HT7 receptor; details: 10 μM test ligand, [3H]LSD, recombinant receptor in HEK-293 cells; for inhibition at 10 µM: read-out: HT7, percent of control-specific binding
T7 construct: host or cells: HEK-293 cells (membrane preparation)

[5] = target: T8, serotonin transporter (SERT) (Homo sapiens, UniProt P31645); assay: biochemical; type: binding; details: for inhibition at 10 µM: read-out: SERT, percent of control-specific binding
T8 construct: host or cells: CHO cells (membrane preparation)

[6] = target: T9, dopamine transporter (DAT) (Homo sapiens, UniProt Q01959); assay: Eurofins Cerep competition binding assay at dopamine transporter; details: for inhibition at 10 µM: read-out: DAT, percent of control-specific binding
T9 construct: host or cells: CHO cells (membrane preparation)

MT1 receptor = target: T10, MT1 receptor (Homo sapiens, UniProt P48039); assay: Eurofins Cerep competition binding assay at MT1 receptor; details: for inhibition at 10 µM: read-out: MT1, percent of control-specific binding
T10 construct: host or cells: CHO cells (membrane preparation)

[7] = target: T11, norepinephrine transporter (NET) (Homo sapiens, UniProt P23975); assay: Eurofins Cerep competition binding assay at norepinephrine transporter; details: for inhibition at 10 µM: read-out: NET, percent of control-specific binding
T11 construct: host or cells: CHO cells (membrane preparation)

5-HT2A receptor [8] = target: T4, 5-HT2A receptor; assay: biochemical; type: binding; details: 1 nM [3H]ketanserin; membranes containing 5-HT2A; SPA

T9 sequence (Q01959 whole entry): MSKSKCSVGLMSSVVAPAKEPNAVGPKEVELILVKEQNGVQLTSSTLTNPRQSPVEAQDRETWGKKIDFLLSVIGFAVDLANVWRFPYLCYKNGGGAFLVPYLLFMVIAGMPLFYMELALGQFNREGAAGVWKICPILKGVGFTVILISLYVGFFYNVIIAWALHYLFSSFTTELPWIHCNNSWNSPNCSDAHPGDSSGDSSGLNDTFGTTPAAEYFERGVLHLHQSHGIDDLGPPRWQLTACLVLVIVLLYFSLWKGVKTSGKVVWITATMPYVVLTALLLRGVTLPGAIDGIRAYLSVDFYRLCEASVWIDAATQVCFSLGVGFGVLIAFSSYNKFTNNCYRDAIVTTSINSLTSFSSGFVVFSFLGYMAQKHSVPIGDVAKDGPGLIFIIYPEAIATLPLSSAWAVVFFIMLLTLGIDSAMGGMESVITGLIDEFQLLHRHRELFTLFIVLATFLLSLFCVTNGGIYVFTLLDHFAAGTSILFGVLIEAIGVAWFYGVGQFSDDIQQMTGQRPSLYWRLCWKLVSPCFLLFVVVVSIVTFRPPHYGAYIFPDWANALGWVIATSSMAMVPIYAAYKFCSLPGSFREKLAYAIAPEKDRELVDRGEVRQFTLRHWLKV
T5 sequence (P41595 whole entry): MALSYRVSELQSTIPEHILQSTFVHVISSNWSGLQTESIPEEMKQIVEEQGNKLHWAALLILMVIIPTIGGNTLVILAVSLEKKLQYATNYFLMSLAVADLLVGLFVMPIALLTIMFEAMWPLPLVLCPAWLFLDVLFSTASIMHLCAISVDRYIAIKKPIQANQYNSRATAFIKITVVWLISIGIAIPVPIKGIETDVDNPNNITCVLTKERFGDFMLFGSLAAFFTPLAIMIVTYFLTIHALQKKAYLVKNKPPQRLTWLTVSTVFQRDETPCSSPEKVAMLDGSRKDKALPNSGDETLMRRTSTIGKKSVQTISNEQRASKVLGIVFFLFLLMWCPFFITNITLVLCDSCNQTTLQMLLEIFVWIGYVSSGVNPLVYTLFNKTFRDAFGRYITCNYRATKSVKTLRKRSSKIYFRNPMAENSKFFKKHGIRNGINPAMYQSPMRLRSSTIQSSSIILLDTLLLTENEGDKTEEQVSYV
T10 sequence (P48039 whole entry): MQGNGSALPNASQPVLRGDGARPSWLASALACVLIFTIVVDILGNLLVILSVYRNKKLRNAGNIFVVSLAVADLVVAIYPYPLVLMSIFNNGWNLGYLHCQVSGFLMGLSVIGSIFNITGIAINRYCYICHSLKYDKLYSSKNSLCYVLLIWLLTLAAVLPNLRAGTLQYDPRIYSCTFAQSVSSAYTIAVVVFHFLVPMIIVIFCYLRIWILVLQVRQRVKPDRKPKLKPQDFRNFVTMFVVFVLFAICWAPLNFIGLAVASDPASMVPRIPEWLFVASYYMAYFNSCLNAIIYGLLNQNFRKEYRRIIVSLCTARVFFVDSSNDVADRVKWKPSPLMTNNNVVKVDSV
T2 sequence (P35462 whole entry): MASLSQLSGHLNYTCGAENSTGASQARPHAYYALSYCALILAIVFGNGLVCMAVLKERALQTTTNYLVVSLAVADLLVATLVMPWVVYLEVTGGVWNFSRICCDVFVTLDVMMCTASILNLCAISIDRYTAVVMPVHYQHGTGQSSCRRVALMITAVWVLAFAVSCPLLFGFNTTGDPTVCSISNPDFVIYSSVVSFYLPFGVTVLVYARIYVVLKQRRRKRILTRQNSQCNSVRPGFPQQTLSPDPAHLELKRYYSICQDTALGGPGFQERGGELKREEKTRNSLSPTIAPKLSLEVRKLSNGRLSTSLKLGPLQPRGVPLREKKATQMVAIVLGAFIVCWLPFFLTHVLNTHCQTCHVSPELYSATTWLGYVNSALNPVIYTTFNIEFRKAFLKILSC
T11 sequence (P23975 whole entry): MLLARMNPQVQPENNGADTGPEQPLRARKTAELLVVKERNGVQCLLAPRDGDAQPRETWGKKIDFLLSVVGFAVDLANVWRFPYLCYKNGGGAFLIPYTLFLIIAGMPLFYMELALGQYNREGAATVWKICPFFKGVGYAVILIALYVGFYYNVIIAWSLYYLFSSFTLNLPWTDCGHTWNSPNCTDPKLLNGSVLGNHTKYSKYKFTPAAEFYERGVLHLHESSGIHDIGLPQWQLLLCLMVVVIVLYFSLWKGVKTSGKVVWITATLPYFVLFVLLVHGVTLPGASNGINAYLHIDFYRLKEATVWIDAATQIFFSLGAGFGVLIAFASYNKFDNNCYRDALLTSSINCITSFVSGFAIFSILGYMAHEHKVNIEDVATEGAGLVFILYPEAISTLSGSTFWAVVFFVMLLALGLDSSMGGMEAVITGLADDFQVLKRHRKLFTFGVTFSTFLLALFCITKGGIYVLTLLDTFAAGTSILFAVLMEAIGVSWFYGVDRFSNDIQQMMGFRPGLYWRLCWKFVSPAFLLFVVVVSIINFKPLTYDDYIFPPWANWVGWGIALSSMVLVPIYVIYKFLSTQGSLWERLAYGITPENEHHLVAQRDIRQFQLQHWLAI
T4 sequence (P28223 whole entry): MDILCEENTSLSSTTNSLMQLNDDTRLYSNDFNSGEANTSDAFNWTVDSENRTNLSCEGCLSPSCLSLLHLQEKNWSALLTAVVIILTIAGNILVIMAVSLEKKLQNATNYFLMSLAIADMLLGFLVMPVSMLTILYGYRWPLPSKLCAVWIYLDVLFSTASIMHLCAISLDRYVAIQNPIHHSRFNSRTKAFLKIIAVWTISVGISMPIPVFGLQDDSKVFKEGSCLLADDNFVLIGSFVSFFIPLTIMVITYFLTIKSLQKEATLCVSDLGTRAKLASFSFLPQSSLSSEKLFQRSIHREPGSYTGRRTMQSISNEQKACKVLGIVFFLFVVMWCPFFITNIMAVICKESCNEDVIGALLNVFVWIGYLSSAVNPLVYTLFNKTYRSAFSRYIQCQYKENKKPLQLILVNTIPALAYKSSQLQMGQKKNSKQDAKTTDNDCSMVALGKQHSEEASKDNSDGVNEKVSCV
T7 sequence (P34969 whole entry): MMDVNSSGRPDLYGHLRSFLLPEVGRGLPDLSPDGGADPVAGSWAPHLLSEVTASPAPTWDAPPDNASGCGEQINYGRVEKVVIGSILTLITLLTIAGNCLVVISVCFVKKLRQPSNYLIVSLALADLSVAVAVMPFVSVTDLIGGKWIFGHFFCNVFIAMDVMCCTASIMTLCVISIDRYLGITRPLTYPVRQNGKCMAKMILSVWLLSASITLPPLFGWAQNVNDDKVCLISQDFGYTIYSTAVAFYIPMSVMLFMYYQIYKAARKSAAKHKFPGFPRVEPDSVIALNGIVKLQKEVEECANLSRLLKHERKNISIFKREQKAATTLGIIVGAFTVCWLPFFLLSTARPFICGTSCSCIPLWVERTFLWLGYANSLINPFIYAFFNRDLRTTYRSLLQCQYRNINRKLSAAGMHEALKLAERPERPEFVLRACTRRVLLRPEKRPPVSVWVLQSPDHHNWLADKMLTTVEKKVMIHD
T8 sequence (P31645 whole entry): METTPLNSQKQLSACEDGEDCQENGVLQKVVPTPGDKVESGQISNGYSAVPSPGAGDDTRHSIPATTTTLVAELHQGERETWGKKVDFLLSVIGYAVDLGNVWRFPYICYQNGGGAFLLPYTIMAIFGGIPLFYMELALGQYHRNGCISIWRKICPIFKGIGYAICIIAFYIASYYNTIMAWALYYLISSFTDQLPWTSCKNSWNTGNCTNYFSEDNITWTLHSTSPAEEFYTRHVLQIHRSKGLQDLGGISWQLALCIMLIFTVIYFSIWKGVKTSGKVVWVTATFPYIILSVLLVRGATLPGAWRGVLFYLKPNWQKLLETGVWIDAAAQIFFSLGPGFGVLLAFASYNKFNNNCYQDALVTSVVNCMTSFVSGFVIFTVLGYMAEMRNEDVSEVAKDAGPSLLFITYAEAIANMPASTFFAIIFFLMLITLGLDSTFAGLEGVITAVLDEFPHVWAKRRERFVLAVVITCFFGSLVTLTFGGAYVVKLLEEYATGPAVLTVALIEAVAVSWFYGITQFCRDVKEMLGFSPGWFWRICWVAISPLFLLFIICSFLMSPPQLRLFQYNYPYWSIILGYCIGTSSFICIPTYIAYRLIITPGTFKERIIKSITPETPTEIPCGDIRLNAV

SMILES: CC(NC(C)(C)C)C(=O)c1cccc(Cl)c1 (stereo not drawn) [Bupropion]
- α-2A, percent of control-specific binding (alpha2A receptor): 2%
- inhibition at 10 µM (D3 receptor): 3%

SMILES: O=c1n(CCCN2CCN(c3cccc(Cl)c3)CC2)nc2ccccn12 [Trazodone]
- α-2A, percent of control-specific binding (alpha2A receptor): 91%
- inhibition at 10 µM (D3 receptor): 89%

SMILES: Brc1cc2c(cc1CCC1=NCCO1)OCO2 [G(V)]
- EC50 (5-HT1A receptor [1]): 130 µM

SMILES: CCN(CC)CCCc1ccc2c(c1)OCO2 [C(I)]
- Ki (5-HT1A receptor [2]): 2.9 µM

SMILES: c1cc2c(cc1CCCN1CCCC1)OCO2 [C(III)]
- Ki (5-HT1A receptor [2]): 2.33 µM
- inhibition at 10 µM (5-HT1A receptor [3]): 72%
- inhibition at 10 µM (5-HT2A receptor [4]): 37%
- inhibition at 10 µM (5-HT2B receptor): 47%
- inhibition at 10 µM (5-HT2C receptor): 33%
- inhibition at 10 µM (5-HT7 receptor): 15%
- α-2A, percent of control-specific binding (alpha2A receptor): 36%
- inhibition at 10 µM (D3 receptor): 22%
- inhibition at 10 µM [5]: 19%
- inhibition at 10 µM [6]: 27%
- inhibition at 10 µM (MT1 receptor): 3%
- inhibition at 10 µM [7]: 3%

SMILES: Cc1ccc(Sc2ccccc2N2CCNCC2)c(C)c1 [vortioxetine]
- inhibition at 10 µM (5-HT2A receptor [4]): 90%
- α-2A, percent of control-specific binding (alpha2A receptor): 62%
- inhibition at 10 µM (D3 receptor): 88%

SMILES: CCCOc1c(OC)cc(CCN)cc1OC [proscaline]
- inhibition at 10 µM (5-HT2A receptor [4]): 91%
- α-2A, percent of control-specific binding (alpha2A receptor): 40%
- inhibition at 10 µM (D3 receptor): 4%

SMILES: COc1cc(CCN)c(OC)cc1Br [2C-B, reference compound]
- Ki (5-HT1A receptor [2]): 0.2 µM
- Ki (5-HT2A receptor [8]): 0.414 µM
- EC50 (5-HT1A receptor [1]; reduction of cAMP in cells stimulated with 4 μM forskolin, CHO-K1/5-HT1A/Gα15, read-out: 5-HT1A, EC50): 5.95 µM
- HT1A, percent of control-specific binding (5-HT1A receptor [3]): 96%
- HT2A, percent of control-specific binding (5-HT2A receptor [4]): 98%
- HT2B, percent of control-specific binding (5-HT2B receptor): 99%
- HT7, percent of control-specific binding (5-HT7 receptor): 88%
- α-2A, percent of control-specific binding (alpha2A receptor): 88%
- D3, percent of control-specific binding (D3 receptor): 43%
- SERT, percent of control-specific binding ([5]; 10 µM): 42%
- DAT, percent of control-specific binding ([6]; 10 μM test ligand, [3H]BTCP, recombinant transporter in CHO cells): 5%
- MT1, percent of control-specific binding (MT1 receptor; 10 μM test ligand, [125I]2-iodomelatonin, recombinant receptor in CHO cells): 86%
- NET, percent of control-specific binding ([7]; 10 μM test ligand, [3H]nisoxetine, recombinant transporter in CHO cells): 13%

SMILES: COc1cc2c(cc1CCC(=O)N1CCCC1)OCO2 [F(V)]
- Ki (5-HT1A receptor [2]): 364 µM
- EC50 (5-HT1A receptor [1]): 10 µM

SMILES: Brc1cc2c(cc1CCCN1CCCC1)OCO2 [C(IV)]
- Ki (5-HT1A receptor [2]): 0.596 µM
- inhibition at 10 µM (5-HT1A receptor [3]): 92%
- inhibition at 10 µM (5-HT2A receptor [4]): 62%
- inhibition at 10 µM (5-HT2B receptor): 73%
- inhibition at 10 µM (5-HT2C receptor): 65%
- inhibition at 10 µM (5-HT7 receptor): 40%
- α-2A, percent of control-specific binding (alpha2A receptor): 55%
- inhibition at 10 µM (D3 receptor): 61%
- inhibition at 10 µM [5]: 31%
- inhibition at 10 µM [6]: 10%
- inhibition at 10 µM (MT1 receptor): 8%
- inhibition at 10 µM [7]: 0%

SMILES: COc1ccc2cccc(CCNC(C)=O)c2c1 [Agomelatine]
- inhibition at 10 µM (5-HT2A receptor [4]): 61%
- α-2A, percent of control-specific binding (alpha2A receptor): 2%
- inhibition at 10 µM (D3 receptor): 6%

SMILES: O=C(CCc1cc2c(cc1Br)OCO2)N1CCCC1 [F(IV)]
- Ki (5-HT1A receptor [2]): 84.5 µM
- inhibition at 10 µM (5-HT1A receptor [3]): 37%
- inhibition at 10 µM (5-HT2A receptor [4]): 0%
- inhibition at 10 µM (5-HT2B receptor): 26%
- inhibition at 10 µM (5-HT2C receptor): 8%
- inhibition at 10 µM (5-HT7 receptor): 0%
- α-2A, percent of control-specific binding (alpha2A receptor): 4%
- inhibition at 10 µM (D3 receptor): 12%
- inhibition at 10 µM [5]: 0%
- inhibition at 10 µM [6]: 0%
- inhibition at 10 µM (MT1 receptor): 42%
- inhibition at 10 µM [7]: 0%
